From publication PMC10747602, “Dose Response, Dosimetric, and Metabolic Evaluations of Replacement PFAS Perfluoro-(2,5,8-trimethyl-3,6,9-trioxadodecanoic) Acid (HFPO-TeA)” (Toxics, 2023)
Where “and” joins values, the source holds several entries; their conditions need not be identical. Equal values may be shown once.

Tests used:
[1] = Hepatocyte metabolic stability (clearance) assay, human hepatocytes; conditions: human, hepatocytes, 1000 nM
Method: (§1) Information on the chemicals and materials used in the hepatocyte metabolic work can be found in Supplementary Text S9 and Table S3. In vitro evaluations of hepatocyte metabolic stability were performed in human and rat hepatocytes, as previously described. Briefly, pooled, cryopreserved hepatocyte suspensions were thawed, assessed for viability, and then diluted in William’s medium E containing dexamethasone and cell maintenance cocktail B to achieve a cell density of 50,000 cells/100 µL. The assay was started by adding hepatocyte suspensions to wells of 96-well polypropylene plates containing an equal volume of media with 2 µM of analyte (final assay concentration: 1 µM). Plates were placed in a 37 °C cell culture incubator (5% CO2) on a shaker set to 200 rpm. Time points assessed were T0, T15, T30, T60, T120, and T240 min. At each time point, the plates were removed from the shaker and the incubates were crashed with an equal volume of ice-cold ACN containing 1.2% FA and 16 ng/mL of ^13C3 -HFPO-DA. After chilling and centrifugation at 4122× g, the supernatants were transferred to new collection plates and stored at −70 °C until analysis for the parent compound on the Waters instrumentation described below. Immediately prior to analysis, samples were thawed, vortexed, and centrifuged at 4200× g, and then diluted 1:4 in 95:5 H2O/ACN with 2.5 mM of ammonium acetate. Negative controls, including no cell controls and metabolically inactivated hepatocytes, were run concurrently to assess the chemical stability over the time course.
(§2) Intrinsic clearance (Clint; hepatic clearance) calculations are detailed in Supplementary Text S9 [57].
(§3) Targeted, quantitative analysis of in vitro hepatocyte metabolic stability and plasma protein binding assay samples was conducted on a Waters Xevo-TQS micro mass spectrometer (Waters, Milford, MA, USA) ultra-high-performance liquid chromatography tandem mass spectrometry system (UPLC-MS/MS), modified with a PFAS analysis kit. Samples were analyzed in negative ion mode with UniSpray ionization. A CORTECS T3 column (Waters CORTECS, 3 × 100 mm, particle size 2.7 µm) was used for chromatographic separation with a flow rate of 0.6 mL/min and a temperature of 55 °C. Gradient elution was used with eluent A (95:5 H2O/ACN) and eluent B (95:5 ACN/H2O) with 2.5 mM of ammonium acetate. The gradient is available in Table S11. Additional details for MS parameters are found in Table S12 and monitored transitions are found in Table S13.
(§4) Table S2: Data processing parameters used with Sciex MarkerView 1.3.1.
(§5) Support ing Text S9: Hepatocyte Metabolic Stability Assay Materials, Chemicals, and Calculations
(§6) Pooled human and rat cryopreserved primary hepatocyte suspensions were both obtained from
(§7) BioIVT, a US Food and Drug Administration-licensed and inspected donor center, and produced using
(§8) non-transplantable tissue.
(§9) William’s E media, dexamet hasone (98% pure), and cell maintenance cocktail B were obtained from
(§10) Thermo Fisher Scientific (Waltham, MA, USA), the OptiThaw hepatocyte kit from Sekisui/Xenotech
(§11) (Tokyo, Japan), and the trypan blue s (Sekisui/ Xenotech, Tokyo, Japan) and the trypan blue solution from […]

[2] = Hepatocyte metabolic stability (clearance) assay, rat hepatocytes; conditions: both, Sprague Dawley, rat, hepatocytes
Method: as §1, §2, §3, §4, §5, §6, §7, §8, §9, §10, §11

[3] = Ultracentrifugation plasma protein binding assay, human plasma; type: in vitro ADME; conditions: both sexes, human
Method: (§12) Information on the chemicals and materials used in the plasma protein binding work can be found in Supplementary Text S10 and Table S3. Human and rodent plasma were evaluated for plasma protein binding using ultracentrifugation, as previously described. Working solutions of 3 mM of HFPO-DA, HFPO-TA, and HFPO-TeA were prepared separately in ethanol, with each working solution containing 3 mM of testosterone (Sigma-Aldrich; ≥98% pure) as a reference compound for assay performance. An aliquot of each stock solution (13.3 µL) was added to separate 15 mL tubes with 3.987 mL of plasma for a final assay concentration of 10 µM. The plasma solutions were incubated at 37 °C and 125 rpm for 60 min. One-hour stability samples (T60 min) were drawn in triplicate and diluted in four volumes of plasma ultrafiltrate. Aliquots (1 mL) from each plasma solution were drawn in triplicate and transferred to polycarbonate tubing. These samples underwent ultracentrifugation (Beckman OptimaMax; Beckman Coulter Inc., Brea, CA, USA) at 850,000× g for 4 h at 37 °C.
(§13) The remaining plasma solutions were returned for incubation at 37 °C and 125 rpm for an additional 4 h. Five-hour stability samples (T300 min) were then drawn in triplicate and diluted in four volumes of plasma ultrafiltrate. After ultracentrifugation, the aqueous fraction (AF) was collected by transferring the supernatant to a new tube and diluting in an equal volume of plasma for matrix matching. All samples were combined with 3 volumes of ice-cold ACN containing 16 ng/mL of ^13C3-HFPO-DA and 16 ng/mL of ^13C-Testosterone (Cambridge Isotope Laboratories; 98% pure). Samples were vigorously mixed, stored for 10 min at −20 °C, and then centrifuged at 12,000× g for 10 min at 4 °C. Supernatants were collected then stored at −70 °C prior to analysis.
(§14) Fraction unbound (fu) in plasma (fup) and percent stability calculations are detailed in Supplementary Text S10. Hepatic clearance, the fu in blood (fub) (fu in plasma adjusted for blood:plasma partitioning), and renal clearance were used to derive the steady-state concentration (Css) of each compound that will be used for in vitro–in vivo extrapolation (IVIVE). Renal clearance was calculated using the glomerular filtration rate (a species-dependent constant) and the fub. The Css calculation is detailed in Supplementary Text S11.
(§15) The gradient is available in Table S11. […]
(§16) Chemical stability in plasma was assessed
(§17) (F) Percent Stability = T300minutesT60minutes∗100

Human plasma = assay: as above; type: in vitro ADME; conditions: for Experimental fup (average fraction unbound in plasma): 10 µM, ultracentrifugation; for Average Stability (T5hr/ T1hr) / Aqueous Fraction concentration / Fraction Unbound in plasma (fup) / Stability (T5hr/ T1hr) / Time 1 hr concentration / Time 5 hr concentration: 10000 nM; for Average Stability (T5hr/ T1hr): 37 °C; for Aqueous Fraction concentration: after ultracentrifugation; for Aqueous Fraction concentration / Fraction Unbound in plasma (fup) / Stability (T5hr/ T1hr) / Time 1 hr concentration / Time 5 hr concentration: replicates A-C
Method: as §12, §13, §14, §15, §16, §17

[4] = system: Sprague Dawley rodent plasma; assay: Ultracentrifugation plasma protein binding assay, rat plasma; type: in vitro ADME; conditions: rat plasma, 10000 nM
Method: as §12, §13, §14, §15, §16, §17

[5] = as above; type: in vitro ADME; conditions: both sexes, Sprague Dawley, rat, rat plasma, 10000 nM
Method: as §12, §13, §14, §15, §16, §17

CC(C)NCC(O)COc1cccc2ccccc12 (stereo not shown) [Propranolol, reference compound]
half-life at 1 µM ([1]; HT-Background Half Life, heat treated human hepatocytes): 738 min | half-life at 1 µM ([1]; Half Life, human hepatocytes, time in min): 97.7 min | half-life at 1000 nM [2]: 15.7 min

C[C@]12CC[C@H]3[C@@H](CCC4=CC(=O)CC[C@@]43C)[C@@H]1CC[C@@H]2O [Testosterone]
fraction unbound at 4 h, 10 µM ([3]; plasma, 10 µM, ultracentrifugation, read-out: Experimental fup (average fraction unbound in plasma)): 0.048 | fraction unbound at 4 h, 10 µM ([3]; pooled human plasma, 10000 nM, replicates A-C, read-out: Fraction Unbound in plasma (fup)): 0.0537 | Experimental fup (average fraction unbound in plasma) (Human plasma): 0.0417 | Experimental fup (average fraction unbound in plasma) (Human plasma; listed as Tesosterone): 0.0359 | Average Stability (T5hr/ T1hr) (Human plasma): 1.1059 and 0.9812 | Average Stability (T5hr/ T1hr) (Human plasma; listed as Tesosterone): 1.0002 | Aqueous Fraction concentration (Human plasma): 546.88 nM and 521.28 nM and 574.4 nM and 376.32 nM and 357.12 nM and 381.76 nM | Aqueous Fraction concentration (Human plasma; listed as Tesosterone): 293.12 nM and 277.12 nM and 292.16 nM | Fraction Unbound in plasma (fup) (Human plasma): 0.0442 and 0.0462 and 0.0429 and 0.0406 and 0.0415 | Stability (T5hr/ T1hr) (Human plasma): 0.9564 and 1.2770 and 1.0843 and 0.9797 and 0.9599 and 1.0039 | Time 1 hr concentration (Human plasma): 10.6456 µM and 9.2344 µM and 11.4704 µM and 8.9504 µM and 9.1664 µM and 9.1736 µM | Time 5 hr concentration (Human plasma): 10.1816 µM and 11.792 µM and 12.4368 µM and 8.7688 µM and 8.7984 µM and 9.2096 µM | Fraction Unbound in plasma (fup) (Human plasma; listed as Tesosterone): 0.0369 and 0.0320 and 0.0386 | Stability (T5hr/ T1hr) (Human plasma; listed as Tesosterone): 0.9569 and 1.1423 and 0.9014 | Time 1 hr concentration (Human plasma; listed as Tesosterone): 8.3008 µM and 7.576 µM and 8.3888 µM | Time 5 hr concentration (Human plasma; listed as Tesosterone): 7.9432 µM and 8.6544 µM and 7.5616 µM | Average Stability (T5hr/ T1hr) [4]: 1.0825 and 0.9487 and 1.0344 | Aqueous Fraction, Rep A ([4]; Rep A): 659.2 nM and 463 nM and 481 nM | Fraction Unbound in plasma (fup), Rep A ([4]; Rep A): 0.05346 and 0.05095 | Stability (T5hr/ T1hr), Rep A ([4]; Rep A): 1.0325 and 0.8708 and 1.0149 | Time 1 hr concentration, Rep A ([4]; Rep A): 11.552 µM and 9.9536 µM and 9.3008 µM | Time 5 hr concentration, Rep A ([4]; Rep A): 11.928 µM and 8.6672 µM and 9.4392 µM | Aqueous Fraction, Rep B ([4]; Rep B): 678.4 nM and 491 nM and 472 nM | Fraction Unbound in plasma (fup), Rep B ([4]; Rep B): 0.0545 | Stability (T5hr/ T1hr), Rep B ([4]; Rep B): 1.1304 and 0.9004 | Time 1 hr concentration, Rep B ([4]; Rep B): 10.184 µM and 10.0112 µM and 8.783 µM | Time 5 hr concentration, Rep B ([4]; Rep B): 11.512 µM and 9.0136 µM | Aqueous Fraction, Rep C ([4]; Rep C): 681.6 nM and 481.28 nM and 439 nM | Fraction Unbound in plasma (fup), Rep C ([4]; Rep C): 0.04493 and 0.05209 | Stability (T5hr/ T1hr), Rep C ([4]; Rep C): 1.0845 and 1.0750 and 1.0540 | Time 1 hr concentration, Rep C ([4]; Rep C): 12.408 µM and 9.964 µM and 7.99 µM | Time 5 hr concentration, Rep C ([4]; Rep C): 13.456 µM and 10.7112 µM and 8.4216 µM | Average fup (fraction unbound in plasma) ([4]; ultracentrifugation): 0.0510 and 0.0515 | fraction unbound at 4 h, 10 µM ([5]; Rep A, read-out: Fraction Unbound in plasma (fup), Rep A): 0.0553 | fraction unbound at 4 h, 10 µM ([5]; Rep B, read-out: Fraction Unbound in plasma (fup), Rep B): 0.0589 | fraction unbound at 4 h, 10 µM ([5]; Rep C, read-out: Fraction Unbound in plasma (fup), Rep C): 0.0507 | fraction unbound at 4 h, 10 µM ([5]; ultracentrifugation, read-out: Average fup (fraction unbound in plasma)): 0.0549
